Laboratory results published in patent US5972933A, “Method of treating microbial infections” (Ed. Geistlich Sohne AG Fur Chemische Industrie, priority 1998, dated 1999).

Assays:
[1] = tested on: VRE, designated HAM-1; details: commonly encountered VRE; cited from earlier work
[2] = tested on: EMRSA 15 strains; details: local EMRSA 15 strains, typically; cited from earlier work
[3] = tested on: Staph. app.; test: Resistance to Vancomycin (30 μg/Disc), Staph. app.; type: cell-based
Protocol: ^1 VE30: Resistance to Vancomycin (30 μg/Disc)

[4] = cited from earlier work
[5] = tested on: bacteria and fungi; details: known antimicrobial substances; cited from earlier work
[6] = tested on: bacteria and fungi; test: Antimicrobial activity (general statements); type: cell-based
[7] = tested on: TNF production; test: TNF production in human blood / antibiotic-treated cultures; type: cell-based
Text: Taurolidine and/or Taurultam prevent over-production of cytokines in the patient by monocytes of the blood.

[8] = tested on: S. aureus NCTC 6571; test: Disc sensitivity testing (Stokes), reference strain; type: cell-based, Staphylococcus aureus; details: CLX
Protocol: All routine sensitivity testing was performed using a standard disc diffusion technique (Stokes) performed on Unipath (Oxoid) Diagnostic Sensitivity Test agar with 5% lysed horse blood.
Testing of Staphylococci--Staphylococcus aureus (Oxford strain) NCTC 6571
Inocula for test and control organisms were prepared from overnight 37° C. Unipath (Oxoid) Brain Heart Infusion broth cultures. Prom these well-mixed cultures, 2 drops ([…]) were transferred to 3 ml sterile water. This suspension was used to moisten sterile cotton tipped swabs which were then used with a rotary plater for inoculation of test plates.
The following disc sets were used for sensitivity testing:
Methicillin Sensitivity Testing
Methicillin (cloxacillin) sensitivity for Staphylococci was confirmed using a methicillin test strips (Methi-test, Medical Wire Limited--MW981) and a heavy inoculum. This was prepared by adding 5 colonies from an overnight nutrient agar plate culture 3 ml water.
For each organism, including sensitive and resistant controls, a loop was charged with the heavy inoculum suspension and streaked across a Unipath (Oxoid) Diagnostic Sensitivity Test plus 5% lysed horse blood agar plate in a single direction. A methicillin strip was then placed on the surface of the plate at right angles to the inocula. […]

In the case of Teicoplanin, the “in vitro resistance of strain” value [1] is given as “resistance in vitro”.

For CC1(C)S[C@@H]2[C@H](NC(=O)[C@H](N)c3ccccc3)C(=O)N2[C@H]1C(=O)O [Ampicillin], the “in vitro resistance of strain” value [1] is given as “resistance in vitro”.

In the case of COc1cccc(OC)c1C(=O)N[C@@H]1C(=O)N2[C@@H]1SC(C)(C)[C@@H]2C(=O)O [Methicillin, methicillin], the “in vitro resistance of strain” value [2] is listed as “resistant in vitro”.

For C/C(=C\C(=O)OCCCCCCCCC(=O)O)C[C@@H]1OC[C@H](C[C@@H]2O[C@H]2[C@@H](C)[C@H](C)O)[C@@H](O)[C@H]1O [Mupirocin], the “in vitro resistance of strain” value [2] is listed as “resistant in vitro”.

For CC[C@H]1OC(=O)[C@H](C)[C@@H](O[C@H]2C[C@@](C)(OC)[C@@H](O)[C@H](C)O2)[C@H](C)[C@@H](O[C@@H]2O[C@H](C)C[C@H](N(C)C)[C@H]2O)[C@](C)(O)C[C@@H](C)C(=O)[C@H](C)[C@@H](O)[C@]1(C)O [Erythromycin], the “in vitro resistance of strain” value [2] is given as “resistant in vitro” and the “in vitro resistance of strain” value [1] is given as “resistance in vitro”.

In the case of Gentamicin, the “in vitro resistance of strain” value [1] is given as “high level gentamicin resistance”.

For CN[C@H](CC(C)C)C(=O)N[C@H]1C(=O)N[C@@H](CC(N)=O)C(=O)N[C@H]2C(=O)N[C@H]3C(=O)N[C@H](C(=O)N[C@H](C(=O)O)c4cc(O)cc(O)c4-c4cc3ccc4O)[C@H](O)c3ccc(c(Cl)c3)Oc3cc2cc(c3O[C@@H]2O[C@H](CO)[C@@H](O)[C@H](O)[C@H]2O[C@H]2C[C@](C)(N)[C@H](O)[C@H](C)O2)Oc2ccc(cc2Cl)[C@H]1O [Vancomycin], the “VE30: Resistance to Vancomycin” value [3] is listed as “S” and the “in vitro resistance of strain” value [1] is listed as “resistance in vitro”.

For O=C(O)c1cn(C2CC2)c2cc(N3CCNCC3)c(F)cc2c1=O [Ciprofloxacin], the “in vitro resistance of strain” value [2] is listed as “resistant in vitro”.

In the case of O=S1(=O)CCNCN1 [Taurultam], the half-life in vivo [4] is listed as “short half-life in vivo”, the antimicrobial spectrum [5] is listed as “broad-spectrum activity against aerobic and anaerobic bacteria, mycobacteria and fungi” and the “rate of bacterial killing” value [6] is listed as “kills bacteria slowly”. The resistance development [6] was “no resistance development by microbes has been observed”, the TNF production ([7]; added to antibiotic-treated cultures) was “prevents a rise in TNF production” and the “neutralization of released endotoxins” value ([7]; antibiotic-treated cultures) was “nearly complete neutralization of released endotoxins”.

In the case of CCC[C@@H]1C[C@@H](C(=O)N[C@@H]([C@H]2O[C@H](SC)[C@H](O)[C@@H](O)[C@H]2O)[C@H](C)Cl)N(C)C1 [Clindamycin, clindamycin], the “in vitro resistance of strain” value [2] is listed as “resistant in vitro”.

In the case of Cc1onc(-c2ccccc2Cl)c1C(=O)N[C@@H]1C(=O)N2[C@@H]1SC(C)(C)[C@@H]2C(=O)O [Cloxacillin], the “in vitro resistance of strain” value [2] is given as “resistant in vitro” and the “disc sensitivity, methicillin (cloxacillin)” value [8] is given as “S (Test zones <5 mm smaller than the control zone are SENSITIVE)”.
